The results in this text go back to PMC4613240, “A Series of New Ligustrazine-Triterpenes Derivatives as Anti-Tumor Agents: Design, Synthesis, and Biological Evaluation” (International Journal of Molecular Sciences, 2015).

Each structure is given as a SMILES string. Some results are limits rather than exact numbers.

By IC50 is commonly meant the concentration that gives 50% inhibition. For orientation: melting point means the temperature, or range, at which the solid turns liquid.

Data set [1] concerns HT-29 (human colon carcinoma). Description: MTT cytotoxicity assay, HT-29. To be noted: Homo sapiens, HT-29, 72 h, maximal tested concentration 20.0 μM. It counts as cell-based. The procedure: (§1) The cytotoxicity of ligustrazine-triterpenes derivatives was evaluated on five tumor cell lines (Bel-7402, HepG2, HT-29, Hela, and MCF-7) using the standard MTT assay. In the study, the antineoplastic drug cisplatin (DDP) was selected as the positive control. The MDCK cell line was used to test the toxicity of the ligustrazine-triterpenes derivatives and DDP.
(§2) The cell lines Bel-7402 (human hepatocellular carcinoma), HepG2 (human hepatocellular carcinoma), HT-29 (human colon carcinoma), Hela (human cervical cancer), MCF-7 (human breast cancer) were included in this study. All these cell lines were provided by the Chinese Academy of Medical Sciences & Peking Union Medical College. Cultures were maintained as monolayers in RPMI 1640 supplemented with 10% (v/v) heat inactivated fetal bovine serum and 1% (v/v) enicillin/streptomycin (Thermo Technologies, New York, NY, USA) at 37 °C in a humidified atmosphere with 5% CO2. The ligustrazine derivatives under study were dissolved in DMSO (Sigma, St. Louis, MO, USA) and added at required concentrations to the cell culture. Cells incubated without the preparations served as the control.
(§3) The cytotoxicity of the compounds was evaluated on five cancer cell lines (Bel-7402, HepG2, HT-29, Hela, MCF-7) by the standard MTT assay. In short, exponentially growing cells were seeded into 96-well plates at a density 10^4 cells/mL. The plates were incubated at 37 °C in a humidified 5% CO2 atmosphere. Cells were allowed to adhere to the surface for 24 h and then treated with serial dilutions of the compounds for 72 h. Later, aliquots of [3-(4,5-dimethylthiazol-2-yl)-2,5-diphenyltetrazolium bromide] (MTT) solution (20 μL, 5 mg/mL) were added to each well and the incubation was continued for an additional 4 h. Then the supernatant medium was thrown away. The dark blue formazan crystals formed within the healthy cells were solubilized with DMSO (150 μL) and the absorbance was measured in a plate reader (BIORAD 550 spectrophotometer, Bio-rad Life Science Development Ltd., Beijing, China) at 490 nm. Wells containing no drugs were used as control group. The IC50 values were defined as the concentration of compounds that produced a 50% reduction of surviving cells and calculated using Logit-method. Tumor cell growth inhibitory rate was calculated in the following Equation (1): % inhibition = (1 − Sample group OD/Control group OD) × 100% (1)
A general note: Tetrazolium dyes change colour on reduction, which living cells bring about.

Data set [2] deals with MCF-7 (human breast cancer). Description: MTT cytotoxicity assay, MCF-7. It counts as cell-based. To be noted: Homo sapiens, MCF7, 72 h, maximal tested concentration 20.0 μM. The procedure:
as §1, §2, §3

Data set [3] concerns HepG2 (human hepatocellular carcinoma). Description: MTT cytotoxicity assay, HepG2. The data set is classed as cell-based. To be noted: Homo sapiens, HepG2, 72 h, 72 h, maximal tested concentration 20.0 μM. The procedure: as §1, §2, §3
For data set [4], the system named is Bel-7402 (human hepatocellular carcinoma). Description: MTT cytotoxicity assay, Bel-7402. It counts as cell-based. The following applies: Homo sapiens, Bel-7402, 72 h, maximal tested concentration 20.0 μM. How it is done: as §1, §2, §3
The subject of data set [5] is Hela (human cervical cancer). The experiment in a line: MTT cytotoxicity assay, Hela. It counts as cell-based. The following applies: Homo sapiens, HeLa, 72 h, maximal tested concentration 20.0 μM. How it is done: as §1, §2, §3
The test system of data set [6] is Madin-Darby canine kidney cell line (MDCK). Description: MTT cytotoxicity (nephrotoxicity/selectivity) assay, MDCK. To be noted: Canis lupus familiaris, maximal tested concentration 20.0 μM, toxicity to MDCK kidney cells. The data set is classed as cell-based.

For `C=C(C)[C@@H]1CC[C@]2(C(=O)OCc3nc(C)c(C)nc3C)CC[C@]3(C)C(CCC4[C@@]5(C)CC[C@H](OC(=O)c6nc(C)c(C)nc6C)C(C)(C)C5CC[C@]43C)C12` (stereo partly drawn) [Compound 4b, 3β-Hydroxy-(3,5,6-trimethylpyrazin-2-carbonyl)-lup-20(29)-ene-28-oic acid-3,5,6-trimethylpyrazin-2-methyl ester], the melting point was 142.1 to 142.9 °C. For the same compound, the IC50 in data set [1] is > 20 µM. The half-maximal inhibitory concentration (IC50) in data set [2] was determined as 12.9 µM. For the same compound, the IC50 in data set [3] came to 13.2 µM. The IC50 in data set [4] is > 20 µM. In addition, in data set [5], the IC50 is > 20 µM. For the same compound, the 50% inhibitory concentration (IC50) in data set [6] was > 20 µM.
Turning to `Cc1nc(C)c(COC(=O)[C@]23CCC(C)(C)CC2C2=CCC4[C@@]5(C)CC[C@H](OC(=O)c6nc(C)c(C)nc6C)C(C)(C)C5CC[C@@]4(C)[C@]2(C)CC3)nc1C` (stereo partly drawn) [Compound 1b, 3β-Hydroxyolea-(3,5,6-trimethylpyrazin-2-carbonyl)-12-en-28-oic acid-3,5,6-trimethylpyrazin-2-methyl ester], the melting point lay in the range of 193 to 193.7 °C. Further, the concentration for half-maximal inhibition (IC50) in data set [1] was > 20 µM. In data set [2], this compound displayed an IC50 of 10.6 µM. In addition, in data set [3], the half-inhibitory concentration (IC50) was 12.1 µM. The IC50 in data set [4] is > 20 µM. For the same compound, the IC50 in data set [5] is > 20 µM. Besides, the half-maximal inhibitory concentration (IC50) in data set [6] was > 20 µM.
